Measured values from patent US20110046102A1, “AZABICYCLIC COMPOUNDS, PREPARATION THEREOF AND USE OF SAME AS DRUGS, ESPECIALLY BETA-LACTAMASE INHIBITORS” (Novexel, priority 2008, published 2011).
Counter-ions that a name gives are not always drawn.

Key:
E. coli TEM1 β-lactamase = biological target: T1, E. coli TEM1 β-lactamase (Escherichia coli, UniProt P62593); assay: β-lactamase inhibiting activity on isolated enzyme (Nitrocefin hydrolysis), TEM1; assay type: biochemical; conditions: 5 min pre-incubation, 100 μM Nitrocefin, pH 7.0, 37° C., mean of at least 2 experiments, read-out: IC50 enzyme inhibition
T1 construct: The β-lactamases are isolated from bacterial strains resistant to penicillins and cephalosporins; endogenous in cells; host or cells: E. coli 250HT21 (soluble fraction of French-press lysate)
Procedure: (§1) A. Preparation of Tem-1 and P99 β-lactamases
(§2) The β-lactamases are isolated from bacterial strains resistant to penicillins and cephalosporins (Tem 1 and P99 are respectively produced by E. coli 250HT21 and E.Cloacae 293 HT6).
(§3) The bacteria are cultured in 37g/l brain-heart infusion (DIFCO), at 37° C. They are harvested at the end of the exponential phase, cooled and centrifuged. The bacterial residues are dissolved in 50 mM sodium phosphate buffer pH 7.0 and again centrifuged. The bacteria are dissolved in two volumes of this same buffer and lysed using a French-Press held at 4° C. After centrifuging 1 h at 100 000g, at 4° C., the supernatants containing the soluble fraction of the bacterial extracts are collected and frozen to −80° C.
(§4) B. Determination β-lactamase Activity
(§5) The method uses Nitrocefin (OXOID) as substrate, a chromogenic cephalosporin, whose hydrolysis product by β-lactamases is red and absorbed at 485 nm.
(§6) β-lactamase activity is determined kinetically by measuring the variation in absorbance at 485 nm resulting from hydrolysis of the substrate on a plate spectrophotometer (Spectra Max Plus by Molecular Devices). Experiments are conducted at 37° C. The quantity of enzyme was normalized and measurements are taken at initial velocity.
(§7) C. Determination of β-Lactamase Inhibiting Activity
(§8) The measurements are taken with pre-incubation of the enzyme and of the inhibitor (5 min). The products are assayed at 11 concentrations. The reaction mixture contains 100 μM Nitrocefin and 50 mM sodium phosphate buffer, pH 7.0, and 0.1 mg/mL bovine serum albumin.
(§9) Hydrolysis velocities are measured with and without inhibitor. The inhibitor concentration is determined which inhibits 50% of the Nitrocefin hydrolysis reaction by the enzyme (IC50). Data is processed using GraFit software (Erithacus Software). The IC50 values are the mean of the IC50s obtained in at least 2 different experiments.

[1] = biological target: T2, E. cloacae P99 β-lactamase (Enterobacter cloacae, UniProt P05364); assay: β-lactamase inhibiting activity on isolated enzyme (Nitrocefin hydrolysis), P99; assay type: biochemical; conditions: 5 min pre-incubation, 100 μM Nitrocefin, pH 7.0, 37° C., mean of at least 2 experiments, read-out: IC50 enzyme inhibition
T2 construct: The β-lactamases are isolated from bacterial strains resistant to penicillins and cephalosporins; endogenous in cells; host or cells: E. cloacae 293HT6 (soluble fraction of French-press lysate)
Procedure: as §1, §2, §3, §4, §5, §6, §7, §8, §9

E. coli 250BE6 (TEM3) = assay: MIC of ceftazidime alone or with inhibitor, micro-dilution in liquid medium, strain 250BE6; assay type: cell-based; conditions: 24 h; for MIC of CAZ in combination with inhibitor (CAZ-Inhibitor): E. coli 250BE6 TEM3, inhibitor at constant 4 μg/mL
Procedure: (§10) II/ The evidenced β-lactamase inhibiting activity potentialises the antibacterial activity of antibiotics of β-lactam type, and therefore leads to a synergic effect, as is shown by the results given below which express the minimum inhibitory concentration in vitro (MIC in μg/ml), against a certain number of pathogenic microorganisms, and of combinations of ceftazidime (<<CAZ >>) with formula (I) compounds at a concentration of 4 mg/l. Operations are as follows using the so-called micro-dilution method in liquid medium.
(§11) A series of β-lactam concentrations are prepared in the presence of a constant concentration (4 mg/l) of the product to be assayed, each is then seeded with various bacterial strains.
(§12) After 24-hour incubation in an oven at 37° C. growth inhibition is assessed via the lack of any bacterial growth, which allows determination of the minimum inhibitory concentrations (MICs) for each strain, expressed in milligrams/l.

[2] = test system: E. cloacae 293HT6 (P99 AmpC); assay: MIC of ceftazidime alone or with inhibitor, micro-dilution in liquid medium, strain 293HT6; assay type: cell-based; conditions: 24 h; for MIC of CAZ in combination with inhibitor (CAZ-Inhibitor): inhibitor at constant 4 μg/mL
Procedure: as §10, §11, §12

E. cloacae 293HT4 (AmpC) = assay: MIC of ceftazidime alone or with inhibitor, micro-dilution in liquid medium, strain 293HT4; assay type: cell-based; conditions: 24 h; for MIC of CAZ in combination with inhibitor (CAZ-Inhibitor): inhibitor at constant 4 μg/mL
Procedure: as §10, §11, §12

[3] = test system: C. freundii 261GR6 (AmpC); assay: MIC of ceftazidime alone or with inhibitor, micro-dilution in liquid medium, strain 261GR6; assay type: cell-based; conditions: 24 h; for MIC of CAZ in combination with inhibitor (CAZ-Inhibitor): inhibitor at constant 4 μg/mL
Procedure: as §10, §11, §12

[4] = Enterobacter cloacae, no inhibitor, read-out: MIC CAZ alone

T1 sequence (P62593 24-286 limits assumed): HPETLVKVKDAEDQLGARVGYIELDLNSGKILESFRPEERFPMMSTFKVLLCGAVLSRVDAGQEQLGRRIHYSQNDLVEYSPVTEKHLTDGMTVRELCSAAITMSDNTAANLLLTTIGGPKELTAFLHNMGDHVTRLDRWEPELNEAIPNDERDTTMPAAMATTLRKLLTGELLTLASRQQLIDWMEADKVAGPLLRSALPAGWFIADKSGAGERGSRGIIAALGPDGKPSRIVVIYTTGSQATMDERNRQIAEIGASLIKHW
T2 sequence (P05364 21-381): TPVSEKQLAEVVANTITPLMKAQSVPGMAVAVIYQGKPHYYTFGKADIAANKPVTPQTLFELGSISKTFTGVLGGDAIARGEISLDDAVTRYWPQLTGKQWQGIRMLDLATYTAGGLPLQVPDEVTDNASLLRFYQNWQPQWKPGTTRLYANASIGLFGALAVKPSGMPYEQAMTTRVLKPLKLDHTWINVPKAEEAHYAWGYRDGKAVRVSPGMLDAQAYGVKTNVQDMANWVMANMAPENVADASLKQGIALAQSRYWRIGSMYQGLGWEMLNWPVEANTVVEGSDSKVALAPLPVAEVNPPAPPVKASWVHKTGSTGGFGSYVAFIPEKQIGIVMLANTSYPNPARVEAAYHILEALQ

Compound | IC50 (E. coli TEM1 β-lactamase) [µM] | IC50 [1] [µM] | MIC of CAZ in combination with inhibitor (CAZ-Inhibitor) (E. coli 250BE6 (TEM3)) [µg/mL] | MIC of CAZ in combination with inhibitor (CAZ-Inhibitor) [2] [µg/mL] | MIC of CAZ in combination with inhibitor (CAZ-Inhibitor) (E. cloacae 293HT4 (AmpC)) [µg/mL] | MIC of CAZ in combination with inhibitor (CAZ-Inhibitor) [3] [µg/mL] | MIC (E. coli 250BE6 (TEM3); Escherichia coli, read-out: MIC CAZ alone) [µg/mL] | MIC [2, 4] [µg/mL] | MIC (E. cloacae 293HT4 (AmpC); [4]) [µg/mL] | MIC ([3]; Citrobacter freundii, no inhibitor, read-out: MIC CAZ alone) [µg/mL]
NC(=O)[C@@H]1CC[C@@H]2CN1C(=O)N2OCC(=O)O [Example 1, trans-(1R,2S,5R)-6-(2-hydroxy-2-oxoethoxy)-7-oxo-1,6-diazabicyclo[3.2.1]octane-2-carboxamide, reference compound] | 0.72 | 54 | 2 | >32 | >32 | >32 | – | – | – | –
NC(=O)[C@@H]1CC[C@@H]2CN1C(=O)N2OC(F)(F)C(=O)O [Example 3, Sodium salt of trans-(1R,2S,5R)-6-(1,1-difluoro-2-hydroxy-2-oxoethoxy)-7-oxo-1,6-diazabicyclo[3.2.1]octane-2-carboxamide] | 0.0008 | 2.2 | 0.25 | 1 | 0.5 | 1 | – | – | – | –
NC(=O)[C@@H]1CC[C@@H]2CN1C(=O)N2OC(F)C(=O)O (mixture of isomers) [Example 2, trans-(1R,2S,5R)-6-(1-fluoro-2-hydroxy-2-oxoethoxy)-7-oxo-1,6-diazabicyclo[3.2.1]octane-2-carboxamide] | 0.002 | 4.6 | 0.25 | 8 | 8 | 4 | – | – | – | –
CC(C)(O/N=C(\C(=O)N[C@@H]1C(=O)N2C(C(=O)[O-])=C(C[n+]3ccccc3)CS[C@H]12)c1csc(N)n1)C(=O)O [CAZ, ceftazidime, reference compound] | – | – | – | – | – | – | > 32 | > 32 | > 32 | > 32
